Source: US11000033B2, “Ketone or oxime compound, and herbicide” (NISSAN CHEMICAL CORPORATION, priority 2014, dated 2021)

Columns and labels:
Format in all cases: in vivo
[1] = tested on: Echinochloa oryzacola Vasing.; assay: Test Example 1: herbicidal activity, application before weed generation in submerged conditions (symbol A); conditions: application herbicide amount 320 g/ha
Summary of the method: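 Weeds are sown into submerged alluvial soil alongside transplanted 2.5-leaf rice, and the compound, as an emulsion diluted to a set rate, is applied onto the water before emergence. Rating on the 0–5 herbicidal-ratio scale follows 3 weeks of greenhouse growth at 25–30 °C.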

[2] = tested on: transplanted rice plant; assay: Test Example 1: effect on crop, application before weed generation in submerged conditions (symbol a); conditions: application herbicide amount 320 g/ha
Summary of the method: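 Alluvial soil pots flooded to 4 cm water, sown with Echinochloa oryzacola, Scirpus juncoides and Monochoria vaginalis, then transplanted with 2.5 leaf stage rice seedlings; pre-emergence application. Greenhouse 25° C. to 30° C.; scored 0–5 by herbicidal ratio 3 weeks after application.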

[3] = tested on: Scirpus juncoides; assay: Test Example 2: herbicidal activity, application during weed generation in submerged conditions (symbol B); conditions: Table 23; application herbicide amount 320 g/ha; grade 0-5 by criteria of Test Example 1
Summary of the method: (§1)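 Paddy pot test, submerged (4 cm water), alluvial soil, mixed sowing; greenhouse 25–30° C. Emulsion formulation diluted to predetermined rate, applied onto floodwater at 1–2 leaf stage. Visual herbicidal rating at 3 wk post-treatment.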

[4] = tested on: Monochoria vaginalis; assay: Test Example 2: herbicidal activity, application during weed generation in submerged conditions (symbol C); conditions: Table 23; application herbicide amount 320 g/ha; grade 0-5 by criteria of Test Example 1
Summary of the method: as §1

[5] = tested on: Cyperus difformis; assay: Test Example 3: herbicidal effect by foliage application, Wagner pot (symbol E); conditions: application herbicide amount 320 g/ha
Summary of the method: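 Foliar spray of water-diluted emulsion formulation at a predetermined herbicide amount onto 14-day-old plants in flooded alluvial soil (water depth 0.1–0.5 cm), greenhouse 25–30 °C; rice sown alongside. Scored 3 wk post-application on set criteria.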

[6] = tested on: Echinochloa crus-galli var. crus-galli; assay: Test Example 4: herbicidal effect by soil treatment (symbol H); conditions: application herbicide amount 320 g/ha
Summary of the method: (§2)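 Seeds were sown in sterilized diluvial soil, covered with about 1.5 cm of soil, and the soil surface was sprayed with a water-diluted emulsion of the compound at a predetermined rate. Plants grew in a greenhouse at 25° C. to 30° C.; effects were scored visually 3 weeks after application.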

[7] = tested on: Abutilon theophrasti; assay: Test Example 4: herbicidal effect by soil treatment (symbol M); conditions: application herbicide amount 320 g/ha
Summary of the method: as §2

[8] = tested on: Chenopodium album; assay: Test Example 4: herbicidal effect by soil treatment (symbol O); conditions: application herbicide amount 320 g/ha
Summary of the method: as §2

[9] = tested on: Veronica persica; assay: Test Example 4: herbicidal effect by soil treatment (symbol R); conditions: application herbicide amount 320 g/ha
Summary of the method: as §2

[10] = tested on: Setaria viridis; assay: Test Example 5: herbicidal effect by foliage application, plastic box (symbol G); conditions: 320 g/ha, 3 weeks after application
Summary of the method: (§3)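 After sowing into sterilized diluvial soil and growing two weeks under glass at 25° C. to 30° C., seedlings receive a uniform foliar spray of diluted emulsion. Damage is judged visually three weeks on.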

[11] = tested on: Amaranthus retroflexus; assay: Test Example 5: herbicidal effect by foliage application, plastic box (symbol N); conditions: 320 g/ha, 3 weeks after application
Summary of the method: as §3

[12] = tested on: corn; assay: Test Example 5: effect on crop by foliage application, plastic box (symbol c); conditions: 320 g/ha, 3 weeks after application
Summary of the method: (§4)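 Sterilized diluvial soil, plastic box (21 × 13 × 7 cm); spot sowing, ~1.5 cm soil cover; greenhouse 25–30° C.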

[13] = tested on: soybean; assay: Test Example 5: effect on crop by foliage application, plastic box (symbol d); conditions: 320 g/ha, 3 weeks after application
Summary of the method: as §4

CC(=O)CC1CC(O)=C(c2c(C)cc(-c3ccc(Cl)cc3)cc2C)C1=O (stereo not shown) [7-008]
Herbicidal effect grade, A: Echinochloa oryzacola Vasing. [1]: 4 (Herbicidal ratio of 70% or higher and lower than 90%)
Effect grade on crop, a: transplanted rice plant [2]: 5 (Herbicidal ratio of 90% or more (almost completely withered))
Herbicidal effect grade, B: Scirpus juncoides [3]: 0 (Herbicidal ratio of 5% or lower (almost no effect))
Herbicidal effect grade, C: Monochoria vaginalis [4]: 0 (Herbicidal ratio of 5% or lower (almost no effect))
herbicidal effect on E, grade 0-5 [5]: 5 (Herbicidal ratio of 90% or more (almost completely withered))
Herbicidal effect grade, H: Echinochloa crus-galli var. crus-galli [6]: 5 (Herbicidal ratio of 90% or more (almost completely withered))
Herbicidal effect grade, M: Abutilon theophrasti [7]: 0 (Herbicidal ratio of 5% or lower (almost no effect))
Herbicidal effect grade, O: Chenopodium album [8]: 0 (Herbicidal ratio of 5% or lower (almost no effect))
Herbicidal effect grade, R: Veronica persica [9]: 0 (Herbicidal ratio of 5% or lower (almost no effect))
G: Setaria viridis, herbicidal effect (criteria of Test Example 1) [10]: 5 (Herbicidal ratio of 90% or more (almost completely withered))
N: Amaranthus retroflexus, herbicidal effect (criteria of Test Example 1) [11]: 0 (Herbicidal ratio of 5% or lower (almost no effect))
c: corn, effect on crop (criteria of Test Example 1) [12]: 5 (Herbicidal ratio of 90% or more (almost completely withered))
d: soybean, effect on crop (criteria of Test Example 1) [13]: 0 (Herbicidal ratio of 5% or lower (almost no effect))
